{"source": "patent US20100003217A1", "about": "“Compounds and Pharmaceutical Compositions for the Treatment of Viral Infections” (priority 2008, published 2010)", "key": {"[1]": {"system": "primary hepatocytes (human, monkey, rat)", "assay": "Primary hepatocytes, statements pooled over human, monkey and rat", "type": "in vitro ADME", "description": "Primary hepatocytes: Freshly isolated cells from animal and human liver were obtained in suspension on ice. Cells were pelleted by centrifugation at 70-75×g (rat) or 95-90×g (monkey and human) and resuspended at 0.8 million cells per mL of platting medium (William's E supplemented with 5% FBS, 0.5% penicillin-streptomycin, 1% L-glutamine, 4 μg/mL insulin and 1 μM dexamethasone). Multi-well collagen I-coated plates (rat tail collagen type I; 12- or 6-well) were then seeded by addition of 1 mL (12-well; 0.8 million cells/well) or 2 mL (6-well; 1.6 million cells/well) of cell suspension. […]\nCellular extracts were prepared by centrifugation at 16,000 RCF using an Eppendorf microcentrifuge (Eppendorf, Model 5415D) for 10 min to remove cellular debris. An aliquot of 5-10 μL of the supernatant was added to 5 mL of EcoLite™ (MP, Irvine, Calif.) liquid scintillation cocktail and radioactivity measured by liquid scintillation counting (LSC) using a Beckman Coulter LS6500 multipurpose liquid scintillation counter (Beckman Instruments, Fullerton, Calif.). […] Prior to HPLC analysis (described below), radioactivity of the concentrated extracts was measured by LSC using 5 μL aliquots. Extraction recovery was then determined by comparing total radioactivity in extracts before and after drying. […] Samples with poor recovery (<85%) were re-analyzed when possible. […]"}, "[2]": {"system": "HCV genotype 1b replicon (GS4.1 cells)", "assay": "HCV replicon assay (NS4A ELISA)", "type": "cell-based, hepatitis C virus", "settings": "Hepatitis C virus, 72 h, 3 days", "description": "The biological activity of Compound 1, diastereomer 1 and diastereomer 2 was measured by monitoring expression of the NS4A protein by enzyme-linked immunosorbent assay (ELISA) and by luciferase assay as described below:\nThe HCV replicon assay measures the ability of a test compound to inhibit HCV replication in cell culture after 3 days of treatment in a human hepatoma cell line (Huh-7) bearing the HCV genotype 1b replicon (GS4.1 cells). The inhibition of HCV replication was measured by quantification of viral NS4A protein using an enzyme-linked immunosorbent assay (ELISA). […] Additionally, the replicon contains the neomycin phosphotransferase gene under the control of the HCV promoter (Source: Dr. Christoph Seeger, Fox Chase Cancer Center, Philadelphia, Pa.).\nThe NS4A ELISA assay is summarized as follows. Ninety-six-well tissue culture plates were seeded with GS4.1 cells. Antiviral compound solutions were made up freshly in medium as 2×-concentrated stocks. Eight additional 3-fold drug dilutions were prepared from these stocks in medium for a total of 9 dilutions. At least four hours after GS4.1 cells were seeded, drug treatment was initiated by adding one volume of each 2× concentrated drug dilution to one volume of cells/medium in the tissue culture plates. Cells were then incubated for 3 days at 37° C./5% CO2.\nThe media/compound was then removed from the plates and cells were fixed with acetone:methanol, washed three times with a wash solution, and then blocked for 1 hour with 10% fetal bovine serum in a balanced salt solution. Cells were washed three times and incubated with an anti-hepatitis C NS4A monoclonal antibody (Virogen Corp.) for 2 hours at 37° C. […] The reaction was stopped with diluted sulfuric acid (Mallinckrodt Chemicals) and absorbance measured on a Victor^3V 1420 multilabel counter (Perkin Elmer). EC50 values were calculated from dose response curves from the resulting best-fit equations determined by Microsoft Excel and XLfit 4.1 software."}, "CYP2C9": {"target": "CYP2C9 (Homo sapiens, UniProt P11712)", "sequence (P11712 whole entry)": "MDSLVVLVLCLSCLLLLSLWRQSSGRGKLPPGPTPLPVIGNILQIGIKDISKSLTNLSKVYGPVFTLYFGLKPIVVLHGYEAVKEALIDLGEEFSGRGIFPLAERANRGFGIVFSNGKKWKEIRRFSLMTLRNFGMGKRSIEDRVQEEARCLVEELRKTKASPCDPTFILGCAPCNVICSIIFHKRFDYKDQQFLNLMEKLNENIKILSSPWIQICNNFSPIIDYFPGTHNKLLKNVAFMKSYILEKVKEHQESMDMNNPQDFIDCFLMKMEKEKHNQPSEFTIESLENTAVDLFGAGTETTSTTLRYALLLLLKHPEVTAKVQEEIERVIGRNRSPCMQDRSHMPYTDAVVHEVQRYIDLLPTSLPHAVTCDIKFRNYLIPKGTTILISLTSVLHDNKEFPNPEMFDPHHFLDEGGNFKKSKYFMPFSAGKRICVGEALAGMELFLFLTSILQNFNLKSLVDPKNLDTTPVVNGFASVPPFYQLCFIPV", "assay": "Incubation with human recombinant CYP450 supersomes, 2C9", "type": "in vitro ADME", "settings": "CYP450 2C9 supersomes, 60 min, 10 μM, average of two experiments", "description": "Supersomes—Incubations were conducted in a final volume of 0.1 mL reaction buffer (50-100 mM potassium phosphate, pH 7.4 or 100 mM Tris-HCL, pH 7.4) according to protocol provided with each CYP450 supersome. Each reaction contained […] of CYP450 supersome, 1.3 mM NADP^+, 3.3 mM glucose-6-phosphate, 0.4 U/mL glucose-6-phosphate dehydrogenase, 3.3 mM MgCl2 and 10 μM Compound 1. Following incubation for 60 min at 37° C., 100 μL of stop solution (acetonitrile:methanol; 1:1) was added and samples centrifuged for 10 min at 10,000×g. The supernatant was then dried and reconstituted in 10 mM potassium phosphate, pH 5, further transferred to an HPLC glass vial and analyzed by HPLC-UV (described above)."}, "[3]": {"assay": "Cytotoxicity (MTS assay), 184R-A cells", "type": "cell-based", "settings": "human, 184R-A cells (S282T), 184R-A (S282T), N = 3", "description": "Cells were plated and treated with inhibitors as described above."}}, "data": [{"smiles": "C[C@@]1(O)[C@H](O)[C@@H](COP(=O)(O)OP(=O)(O)OP(=O)(O)O)O[C@H]1n1cnc2c(=O)[nH]c(N)nc21", "note": "[Compound 7, [(2R)-2-methyl-β-D-ribofuranosyl]guanine 5′-triphosphate]", "values": [{"measurement": "% of the total intracellular radioactivity", "setting": "[1]; extracts of primary hepatocytes, all three species, 4-24 hours, [^14C]-Compound 1", "result": "60-81%"}]}, {"smiles": "C[C@@]1(O)[C@H](O)[C@@H](CO)O[C@H]1n1cnc2c(=O)[nH]c(N)nc21", "note": "[2′-C-methyl guanosine, 9-(2-C-methyl-β-D-ribofuranosyl)guanine, reference compound]", "values": [{"measurement": "metabolites in the incubation medium following incubation with [^14C]-2′-C-methyl guanosine", "setting": "[1]; primary hepatocytes, 10 μM or 1 μM", "result": "No metabolites were observed"}]}, {"smiles": "CC(C)(CO)C(=O)SCCOP(=O)(NCc1ccccc1)OC[C@H]1O[C@@H](n2cnc3c(=O)[nH]c(N)nc32)[C@](C)(O)[C@@H]1O", "note": "(mixture of isomers) [Compound 1, 3-hydroxy-2,2-dimethyl-thiopropionic acid S-(2-{[(2R,3R,4R,5R)-5-(2-amino-6-oxo-1,6-dihydro-purin-9-yl)-3,4-dihydroxy-4-methyl-tetrahydro-furan-2-ylmethoxy]-benzylamino-phosphoryloxy}-ethyl) ester]", "values": [{"measurement": "EC50", "setting": "[2]", "result": "379 ± 83", "unit": "nM"}, {"measurement": "% Residual Compound 1", "setting": "CYP2C9", "result": 109, "unit": "%"}, {"measurement": "CC50 at 3 days", "setting": "[3]", "result": "> 100", "unit": "µM"}]}]}
